Reference: US20250248979A1, “NOVEL GPX4 INHIBITORS AND USES THEREOF” (THE TRUSTEES OF COLUMBIA UNIVERSITY IN THE CITY OF NEW YORK, priority 2022, published 2025)

Molecular target: T1, GPX4 (Homo sapiens, UniProt P36969)
T1 sequence (P36969 1-170 isoform P36969-2): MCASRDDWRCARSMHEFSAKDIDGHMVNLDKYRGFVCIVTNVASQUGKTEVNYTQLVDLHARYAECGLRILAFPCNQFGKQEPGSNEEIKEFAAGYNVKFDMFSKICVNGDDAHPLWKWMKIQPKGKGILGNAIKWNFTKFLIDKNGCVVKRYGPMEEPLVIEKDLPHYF
Assay: GPX4 activity assay in cell lysates (NADPH-coupled)
Type: biochemical
Design: endogenous in cells; host or cells: A-673 cell lysate
Settings: not given
Description: Determination of GPX4 activity in cell lysates was performed as previously described by Roveri et al. 1994 with minor modifications. Briefly, the assay measures the consumption of NADPH, which has a characteristic absorbance at 340 nm, over time as a proxy for GPX4 activity. The rationale for this is that as GPX4 reduces phospholipid hydroperoxides, it oxidizes glutathione, which is then regenerated by glutathione reductase at the expense of NADPH. NADPH is added to the assay in excess such that the reduction of oxidized glutathione is not the rate-limiting reaction in the assay. Thus, the resulting reduction in NADPH absorbance over time reflects GPX4 activity.
The GPX4-specific substrate phosphatidylcholine hydroperoxide (PCOOH) was prepared by enzymatic hydroperoxidation. Specifically, 0.3 mM phosphatidylcholines (Sigma-Aldrich) were incubated with 0.7 mg soybean lipoxidase type IV (Sigma-Aldrich) in 22 mL of 0.2 M Tris-HCl pH 8.8 with 3 mM sodium deoxycholate at room temperature under continuous stirring for 30 minutes. A Sep-Pak C18 cartridge (Waters-Millipore) was pre-washed with methanol and equilibrated with water, then the substrate mixture was loaded. The column was washed with 10 volumes of water and PCOOH was eluted with 2 mL of methanol.
To prepare the cell lysate containing native GPX4, A-673 cells were cultured with 20 nM sodium selenite to confluency over two days then harvested and washed with cold PBS. Cells were then resuspended at 10 million cells per 1 mL LCW lysis buffer (0.5% peroxide-free Triton X-100, 0.5% sodium deoxycholate salt, 150 mM NaCl, 20 mM Tris-HCl pH 7.5, 10 mM EDTA, 30 mM sodium pyrophosphate, and complete protease inhibitor cocktail), vortexed for 30 seconds, and incubated on ice for 15 minutes. After lysis, the lysates were centrifuged at 14,000×g and 4° C. for 15 minutes. The supernatants were transferred to new pre-chilled tube and the debris pellet was discarded. The protein concentration in the lysate was determined for normalization using the BCA Protein Assay Kit (Pierce).
To measure GPX4 activity, 50 μL of cell lysate was combined with 200 μL activity assay buffer (0.1% Triton X-100, 100 mM Tris-HCl pH 8.0, 10 mM sodium azide, 5 mM EDTA, 0.6 IU/mL glutathione reductase, 0.5 mM NADPH and 3 mM GSH) and compounds of interest in a clear 96-well plate and incubated at 37° C. for 45 minutes. Compounds were dissolved in DMSO. All conditions were tested in triplicate. PCOOH substrate was added to the mixture to initiate GPX4 activity just before reading the plate. The absorbance of NADPH at 340 nm was monitored kinetically over time for 25 minutes. Buffer-only controls and controls without substrate containing only the methanol vehicle were performed to assess background and baseline signal. GPX4 activity was calculated as previously reported by Stolwijk et al. 2020 and results were analyzed in GraphPad Prism 9.

SMILES | GPX4 inhibitory activity, result in words
COc1cccc(OC)c1-c1ccc2c(C(=O)NC(C)(C)COC(=O)CCl)nn(C)c2c1 [QW-487] | completely loss of the inhibitory effect
COc1cc(-c2ccc3c(C(=O)NC(C)(C)COC(=O)CCl)nn(C)c3c2)ccc1Cl [QW-556] | reduced the inhibitory activity

Same assay, conditions: 2.5 μM

SMILES | GPX4% inhibition at 2.5 μM | GPX4 inhibition
Cn1nc(C(=O)NC(COC(=O)CCl)C(F)(F)F)c2ccc(-c3ccc(N4CCOCC4)c(Cl)c3)cc21 (stereo not shown) [QW-687] | 7.9 ± 2.3% | 
COc1ccc(-c2ccc3c(-c4nnc(C(C)(OC(=O)CCl)C(F)(F)F)o4)nn(C)c3c2)cc1Cl (stereo not shown) [QW-699] | 2.4 ± 17.3% | 
COc1c(Cl)cc(-c2ccc3c(C(=O)NC(C)(C)COC(=O)CCl)nn(Cc4ccc(Cl)cc4)c3c2)cc1C(F)(F)F [QW-836] |  | 50%
Cn1nc(-n2cc(C(C)(C)COC(=O)CCl)nn2)c2ccc(-c3ccc(C(F)(F)F)c(Cl)c3)cc21 [QW-787] | 35.1 ± 29.1% | 

Now from value to molecule, other results behind:

GPX4% inhibition at 2.5 μM | SMILES | GPX4 inhibition
65.5 ± 5.9% | COc1cc(F)c(-c2ccc3c(C(=O)NC(C)(C)COC(=O)CCl)nn(C)c3c2)cc1Cl [QW-830] | 
68.7 ± 3.6% | COc1ccc(-c2ccc3c(-n4cc(C(C)(C)COC(=O)CCl)nn4)nn(C)c3c2)c(Cl)c1Cl [QW-829] | 
−172.4 ± 10.3% | COc1ccc(-c2ccc3c(C(=O)NCC(C)(C)OC(=O)CCl)nn(C)c3c2)cc1Br [QW-783] | 
23.8 ± 3.7% | Cn1nc(C(=O)NC(C)(C)COC(=O)CCl)c2ccc(-c3ccc(S(=O)(=O)N4CCC4)cc3)cc21 [QW-724] | 
80.9 ± 3.4% | CN1CCN(Cc2ccc(-c3ccc4c(C(=O)NC(C)(C)COC(=O)CCl)nn(C)c4c3)cc2)CC1 [QW-617] | 
30.5 ± 7.4% | Cn1nc(C(=O)N2CCC(OC(=O)CCl)C2(C)C)c2ccc(-c3ccc(N4CCOCC4)c(Cl)c3)cc21 (stereo not shown) [QW-691] | 
14.0 ± 15.4% | CC(C)Oc1ccc(-c2ccc3c(C(=O)NC(C)(C)CNC(=O)CCl)nn(C)c3c2)cc1Cl [QW-635] | 

Same assay, conditions: 2.5 μM; 4th generation

SMILES | GPX4% inhibition at 2.5 μM
COc1c(Cl)cc(-c2ccc3c(C(=O)NC(C)(C)COC(=O)CCl)nn(Cc4ccc(Cl)cc4)c3c2)cc1Cl [QW-843] | 76.8 ± 11.4%
COc1c(Cl)cc(-c2ccc3c(C(=O)NC(C)(C)COC(=O)CCl)nn(Cc4ccc(Cl)cc4)c3c2)cc1C(F)(F)F [QW-836] | 45.7 ± 17.5%

Same assay, conditions: 2.5 μM; generation 2

SMILES | GPX4% inhibition at 2.5 μM
C=C(CN1CCOCC1)C(=O)NCC(C)(C)NC(=O)c1nn(C)c2cc(Br)ccc12 [QW-648] | 15.8 ± 24.7%

Same assay, conditions: 5 μM

SMILES | GPX4% inhibition at 5 μM
CC(C)Oc1ccccc1-c1ccc2c(C(=O)NC(C)(C)COC(=O)CCl)nn(C)c2c1 [QW-509] | 28.3 ± 3.0%
C#Cc1ccc(-c2ccc3c(C(=O)NC(C)(C)COC(=O)CCl)nn(C)c3c2)cc1 [QW-555] | 20.2 ± 0.5%
COc1cc(-c2ccc3c(C(=O)NC(C)(C)COC(=O)CCl)nn(C)c3c2)cc(OC)c1OC [QW-479] | 59.6 ± 6.8%
Cn1nc(C(=O)NC(C)(C)COC(=O)CCl)c2ccc(-c3ccc4c(c3)OCCO4)cc21 [QW-457] | 54.4 ± 7.2%

Now from value to molecule:

GPX4% inhibition at 5 μM | SMILES
59.5 ± 5.7% | COc1ccc(F)c(-c2ccc3c(C(=O)NC(C)(C)COC(=O)CCl)nn(C)c3c2)c1 [QW-588]
72.8 ± 7.7% | COC(=O)C=Cc1ccc(-c2ccc3c(C(=O)NC(C)(C)COC(=O)CCl)nn(C)c3c2)cc1 [QW-574]
3.3 ± 3.0% | COc1cccc(OC)c1-c1ccc2c(C(=O)NC(C)(C)COC(=O)CCl)nn(C)c2c1 [QW-487]
75.6 ± 4.5% | Cn1nc(C(=O)NC(C)(C)COC(=O)CCl)c2ccc(-c3cnc4ccccc4c3)cc21 [QW-542]
46.6 ± 2.3% | CCOc1ncc(-c2ccc3c(C(=O)NC(C)(C)COC(=O)CCl)nn(C)c3c2)cn1 [QW-536]
80.2 ± 1.8% | COc1cc(-c2ccc3c(C(=O)NC(C)(C)COC(=O)CCl)nn(C)c3c2)ccc1Cl [QW-556]
65.3 ± 3.2% | Cn1nc(C(=O)NC(C)(C)COC(=O)CCl)c2ccc(-c3ccc(OCc4ccccc4)cc3)cc21 [QW-503]

Same assay, conditions: 5 μM; generation 2

SMILES | GPX4% inhibition at 5 μM
Cn1nc(C(=O)NC(C)(C)COC(=O)C#C[Si](C)(C)C)c2ccc(Br)cc21 [QW-418] | −5.6 ± 5.1%
Cn1nc(C(=O)NCCCCCOC(=O)CCl)c2ccc(Br)cc21 [QW-521] | −19.3 ± 9.9%

Further lines, results first:

GPX4% inhibition at 5 μM | SMILES
−15.1 ± 8.4% | Cn1nc(C(=O)NCCCCCC=O)c2ccc(Br)cc21 [QW-497]
20.3 ± 9.5% | COc1cccc2c(C(=O)NC(C)(C)COC(=O)CCl)nn(C)c12 [QW-398]
−10.9 ± 8.0% | C#CC(=O)OCC(C)(C)NC(=O)c1nn(C)c2cc(Br)ccc12 [QW-420]

Same assay, conditions: 20 μM; generation 2

SMILES | GPX4% inhibition at 20 (μM)
CC(C)(COC(=O)CCl)NC(=O)c1ncn2ccccc12 [QW-391] | 5.3 ± 8.5%
CC(C)(COC(=O)CCl)NC(=O)c1n[nH]c2ncccc12 [QW-390] | 4.0 ± 3.9%

Same assay, conditions: 200 μM; generation 1; mean ± s.d., n = 3

SMILES | GPX4% inhibition at 200 (μM)
C=CC(=O)OCCCNC(=O)c1cc2cc(Cl)ccc2[nH]1 [QW-306] | 6.2 ± 7.5%
CC(C)(COC(=O)CCl)NC(=O)c1cc2cc(F)c(F)cc2[nH]1 [QW-339] | 43.4 ± 11.5%
COc1ccc2[nH]cc(C(=O)NC(C)(C)COC(=O)CCl)c2c1 [QW-322] | 16.0 ± 4.9%
COc1cccc2[nH]c(C(=O)NC(C)(C)COC(=O)CBr)cc12 [QW-159] | 56.0 ± 7.3%
Cc1onc(C(=O)OCC(C)(C)NC(=O)c2ccc[nH]2)c1[N+](=O)[O-] [QW-293] | −13.1 ± 14.6%
CC(C)(COC(=O)CBr)NC(=O)c1ccc[nH]1 [QW-291] | 20.0 ± 4.0%

Second part, the molecule after the results:

GPX4% inhibition at 200 (μM) | SMILES
40.2 ± 5.2% | CC(C)(COC(=O)CBr)NC(=O)CCc1cc2ccccc2[nH]1 [QW-271]
7.8 ± 12.8% | C=CC(=O)OCC(C)(C)NC(=O)c1cc2cc(Cl)ccc2[nH]1 [QW-167]
−8.0 ± 15.8% | Cc1onc(C(=O)OCC(C)(C)NC(=O)Cc2cc3ccccc3[nH]2)c1[N+](=O)[O-] [QW-268]
71.0 ± 22.2% | COc1ccc2cc(C(=O)NC(C)(C)CCOC(=O)CCl)[nH]c2c1 [QW-284]
68.9 ± 1.8% | COc1ccc2cc(C(=O)NCC(C)(C)COC(=O)CCl)[nH]c2c1 [QW-302]
12.4 ± 20.1% | Cc1onc(C(=O)OCC(C)(C)NC(=O)c2cc3ccccc3s2)c1[N+](=O)[O-] [QW-277]
58.7 ± 11.5% | CC(C)(COC(=O)CBr)NC(=O)c1c[nH]c2ccccc12 [QW-281]
23.2 ± 17.0% | C=CC(=O)OCC(C)(C)NC(=O)c1cccs1 [QW-261]
3.3 ± 1.2% | C=CC(=O)OCCNC(=O)c1cc2ccc(OC)cc2[nH]1 [QW-301]

Same assay, conditions: 200 μM; generation 2

SMILES | GPX4% inhibition at 200 (μM)
C=CC(=O)OCC(C)(C)NC(=O)c1n[nH]c2ccccc12 [QW-298] | 7.9 ± 8.2%
CC(C)(COC(=O)CBr)NC(=O)c1n[nH]c2ccccc12 [QW-297] | 73.1 ± 14.6%

Same assay, conditions: 200 μM; mean ± s.d., n = 3

SMILES | GPX4% inhibition at 200 (μM)
O=C(c1cc2ccccc2[nH]1)n1ccnc1 [QW-064] | 31.9 ± 16.6%
O=C(c1cc2cc(Cl)ccc2[nH]1)n1ccnc1 [QW-002] | 18.7 ± 15.8%

Results, then the molecule that gave them:

GPX4% inhibition at 200 (μM) | SMILES
−2.6 ± 14.6% | O=C(c1cc2cc([N+](=O)[O-])ccc2[nH]1)n1ccnc1 [QW-049]
37.8 ± 0.9% | O=C(c1c[nH]c2ccccc12)n1ccnc1 [QW-058]
